Assay results published in patent US11542313B2, “Incretin analogs and uses thereof” (Eli Lilly and Company, priority 2017, dated 2023).
Values joined by “and” are separate entries in the source; they are usually repeats but may differ in a detail not shown here. Equal entries are not always repeated. Marks after values point to notes of the source that are not given here.

Assays:
[1] = tested on: male Wistar rats; assay: Intravenous glucose tolerance test (ivGTT), insulin secretion in male Wistar rats; assay type: in vivo, rat; parameters: unit not given here; details: semaglutide 10 nmol/kg positive control in the run of the Example, mean ± SEM, n=6
Method: An intravenous glucose tolerance test (ivGTT) in rats (male Wistar) is used to estimate insulinotropic potency of the exemplary analogs. The GLP-1 RA semaglutide is used as a positive control. Rats with surgically implanted cannulas in the jugular vein and carotid artery (Envigo, Indianapolis, Ind.; 280-320 grams) are housed one per cage in polycarbonate cages with filter tops. Rats are maintained on a 12-hour light-dark cycle at 21° C. and receive 2014 Teklad Global Diet (Envigo, Indianapolis) and deionized water ad libitum. Rats are randomized by body weight and dosed 1.5 mL/kg subcutaneous (sc) with exemplary analogs 16 hours prior to glucose administration, and then fasted. Stock concentrations of […] of the exemplary analogs are diluted in Tris buffer pH 8.0 to 6.667 nMol/mL, 2.0 nMol/mL, 0.667 nMol/mL, 0.2 nMol/mL; doses tested are vehicle, 1, 3 and 10 nMol/kg, and, in some cases 0.3 and 30 nMol/kg. Semaglutide is used as positive control, and its insulinotropic effects are measured both in its own test (vehicle and 1, 3, 10 and 30 nMol/kg doses) and in connection with each run of the exemplary analogs (10 nMol/kg dose).
A time 0 blood sample is collected into EDTA tubes after which glucose is administered ([…], 5 mL/kg). […] Plasma insulin is determined using an electrochemiluminescence assay (Meso Scale, Gaithersburg, Md.). […]

[2] = tested on: diet-induced obese (DIO) C57BL/6 mice; assay: Diet-induced obese C57BL/6 mice, 15-day study; assay type: in vivo, mouse; details: for Body weight % change: days 1 to 15, DIO mice
Method: The exemplary incretin analogs as described herein are proposed as a treatment not only for diabetes but also for metabolic syndrome, which is a collection of co-morbidities (dyslipidemia, obesity, hepatic steatosis, etc.) associated with insulin resistance and diabetes. To investigate the effects of the exemplary analogs on parameters such as weight loss, metabolism, body composition and hepatic steatosis, they were dosed to C57BL/6 diet-induced obese (DIO) mice. These animals, although not diabetic, display insulin resistance, dyslipidemia and hepatic steatosis, all characteristics of metabolic syndrome, after being placed on a high-fat diet for 18 weeks.
Specifically, DIO male C57BL/6 mice 24 to 25 weeks old maintained on a calorie-rich diet are used in the following studies. Mice are individually housed in a temperature-controlled (24° C.) facility with 12-hour light/dark cycle (lights on 22:00) and free access to food (TD95217) and water. After a minimum of 2 weeks acclimation to the facility, the mice are randomized according to their body weight, so each experimental group of animals would have similar body weight. The body weights range from 40 to 51 g.
All groups contain 5-6 mice. Vehicle, exemplary analogs dissolved in vehicle (40 mM Tris-HCl at pH 8.0), and semaglutide dissolved in vehicle are administered by subcutaneous (SC) injection (10 mL/kg) to ad libitum fed DIO mice 30 to 90 minutes prior to the onset of the dark cycle every 3 days for 15 days. SC injections are made on Day 1, 4, 7, 10 and 13. Body weight and food intake are measured daily throughout the study.
Absolute changes in body weight are calculated by subtracting the body weight of the same animal prior to the first injection of vehicle, analog or semaglutide. On Days 0 and 15, total fat mass is measured by nuclear magnetic resonance (NMR) using an Echo Medical System Instrument (Houston, Tex.). On Day 15, animals are sacrificed prior to dark photoperiod, and the livers are removed and frozen. Liver triglycerides, determined from homogenates of livers collected at sacrifice, and plasma cholesterol are measured on a Hitachi Modular P clinical analyzer.
Data are presented as mean±SEM of 5-6 animals per group in Tables 7 and 8 below. Statistical analysis is performed using repeated measures ANOVA, followed by Dunnett's method for multiple comparisons. Significant differences are identified at p<0.05.

[3] = 3 nmol/kg, after fifteen days, DIO mice, mean ± SEM

semaglutide
AUC30min of Insulin after a Bolus IV Glucose [1]: 44.7 +/− 3.7* and 55.1 +/− 9.0* and 40.2 +/− 2.5* and 38.4 +/− 6.0* and 56.3 +/− 7.7* and 48.4 +/− 6.6* and 51.86 +/− 6.7* and 45.6 +/− 6.6*
Body weight % change ([2]; 3 nmol/kg SC every 3 days): −2.62 ± 0.49%
ALT [2, 3]: 99.8 ± 14.84 IU/L
Cholesterol [2, 3]: 218.0 ± 9.23 mg/dL
Glucose [2, 3]: 137.8 ± 7.34 mg/dL
Liver Triglycerides [2, 3]: 226.4 ± 23.8 mg/g tissue
Plasma Insulin [2, 3]: 4196 ± 1014 pg/mL
Body weight % change ([2]; 10 nmol/kg SC every 3 days): −10.31 ± 1.25%
Body weight % change ([2]; 30 nmol/kg SC every 3 days): −15.49 ± 2.44%
